# Data taken from ChEMBL document CHEMBL5380777, “Efficacy, Mechanism, and Structure-Activity Relationship of 6-Methoxy Benzofuran Derivatives as a Useful Tool for Senile Osteoporosis” (J Med Chem, 2023).
# The source made the active and inactive calls. No cut-off for these calls is given here.
# Assays:
# [1] = Toxicity in 2.5 months old SAMP-6 rapid aging mouse model assessed as change in body weight administered at 30 mg/kg/day, IG continuously for 3 months; type: organism-based; conditions: in vivo, po, 2190 h
# [2] = Toxicity in 2.5 months old SAMP-6 rapid aging mouse model assessed as change in triglyceride level administered at 30 mg/kg/day, IG continuously for 3 months in presence of ALN; type: organism-based; conditions: in vivo, po, 2190 h
# [3] = Toxicity in 2.5 months old SAMP-6 rapid aging mouse model assessed as change in urea level administered at 30 mg/kg/day, IG continuously for 3 months in presence of ALN; type: organism-based; conditions: in vivo, po, 2190 h
# [4] = Toxicity in 2.5 months old SAMP-6 rapid aging mouse model assessed as change in serum ALT level administered at 30 mg/kg/day, IG continuously for 3 months; type: organism-based; conditions: in vivo, po, 2190 h
# [5] = Toxicity in 16 months old C57 mouse assessed as change in albumin level administered at 30 mg/kg/day, IG continuously for 4 months; type: organism-based; conditions: in vivo, po, 2920 h
# Osteoblast = assay: Upregulation of BMP-2 expression in 16 months old C57 mouse osteoblast by scRNA-seq analysis; type: functional, cell-based
# [6] = Toxicity in 16 months old C57 mouse assessed as change in body weight administered at 30 mg/kg/day, IG continuously for 4 months relative to aged control group; type: organism-based; conditions: in vivo, po, 2920 h
# Mus musculus [7] = assay: Anti osteoporosis in 16 months old C57 mouse assessed as proliferating granulocyte level in femur administered at 30 mg/kg/day, IG continuously for 4 months by scRNA-seq analysis (reference value: 6.29%); type: functional; conditions: 2920 h
# Mus musculus [8] = assay: Anti osteoporosis in 2.5 months old SAMP-6 rapid aging mouse model assessed as increase in bone mass administered at 30 mg/kg/day, IG continuously for 3 months by micro CT analysis; type: functional, organism-based
# Mus musculus [9] = assay: Anti osteoporosis in 16 months old C57 mouse assessed as B cell level in femur administered at 30 mg/kg/day, IG continuously for 4 months by scRNA-seq analysis (reference value: 5.19%); type: functional; conditions: 2920 h
smiles,measurement,setting,value
COc1ccc2cc(C(=O)NCCN(C)C)oc2c1.CS(=O)(=O)O,Activity,[1],Non-Toxic
same,Activity,[2],Non-Toxic
same,Activity,[3],Non-Toxic
same,Activity,[4],Non-Toxic
same,Activity,[5],Non-Toxic
same,Activity,Osteoblast,Active
same,Activity,[6],Non-Toxic
same,Activity,Mus musculus [7],4.71%
same,Activity,Mus musculus [8],Active
same,Activity,Mus musculus [9],3.05%
